Laboratory results: patent US4795826A, “Ortho-phenylenediamine compounds” (priority 1986, dated 1989)

How the values were obtained:
P388 leukemia = P388 leukemia in vivo (increase in lifespan of mice, i.p. tumour); settings: for ILSmax (percentage increase in lifespan) / ILSmax (percentage increase in lifespan), marked *: P388, at OD on days 1, 5, 9, >20% statistically significant; for ILSmax (percentage increase in lifespan): values without asterisk, controls 11 days; for active (P388): P388, at the stated dose
Lewis lung carcinoma = Lewis lung carcinoma in vivo (increase in lifespan of mice, i.v. tumour); settings: Lewis lung; for ILS (percentage increase in lifespan) / ILS (percentage increase in lifespan), marked *: at OD on days 1, 5, 9, >40% statistically significant; for ILS (percentage increase in lifespan): values without asterisk, controls 17 days; for active (Lewis lung): at the stated dose

| Structure (SMILES) | ILSmax (percentage increase in lifespan) (P388 leukemia) [%] | active (P388) (P388 leukemia) | other results |
| --- | --- | --- | --- |
| CNc1cc(NS(C)(=O)=O)ccc1Nc1c2ccc(Br)cc2nc2c(C)cccc12 [Compound 21] | 122 | Y | – |
| CS(=O)(=O)Nc1ccc(Nc2c3ccccc3nc3cc(Br)ccc23)c(NCCO)c1 [Compound 28] | 117 | Y | – |
| CNc1cc(NS(C)(=O)=O)ccc1Nc1c2ccccc2nc2cc(Br)ccc12 [Compound 7] | 94 | Y | – |
| CNc1cc(NS(C)(=O)=O)ccc1Nc1c2ccc(Cl)cc2nc2c(OC)cccc12 [Compound 20] | 105 | Y | – |
| CNc1cc(NS(C)(=O)=O)ccc1Nc1c2ccccc2nc2cc(Cl)ccc12 [Compound 6] | – | Y | ILSmax (percentage increase in lifespan), marked * (P388 leukemia): 149% |
| CNc1cc(NS(C)(=O)=O)ccc1Nc1c2ccc(OC)cc2nc2c(C)cccc12 [Compound 17] | 102 | Y | – |
| CNc1ccc2c(Nc3ccc(NS(C)(=O)=O)cc3NC)c3ccccc3nc2c1 [Compound 10] | – | Y | ILSmax (percentage increase in lifespan), marked * (P388 leukemia): 208% |
| CNc1cc(NS(C)(=O)=O)ccc1Nc1c2ccccc2nc2cc(I)ccc12 [Compound 8] | 80 | Y | – |
| CNC(=O)c1cccc2c(Nc3ccc(NS(C)(=O)=O)cc3NC)c3cccc(C)c3nc12 [Compound 24] | 94 | Y | – |
| CNc1cc(NS(C)(=O)=O)ccc1Nc1c2ccccc2nc2c(OC)cccc12 [Compound 13] | – | Y | ILSmax (percentage increase in lifespan), marked * (P388 leukemia): 118%; ILS (percentage increase in lifespan) (Lewis lung carcinoma): 153%; active (Lewis lung) (Lewis lung carcinoma): Y |
| CS(=O)(=O)Nc1ccc(Nc2c3ccccc3nc3ccccc23)c(NCCO)c1 [Compound 27] | 89 | Y | – |
| CNc1cc(NS(C)(=O)=O)ccc1Nc1c2cccc(OC)c2nc2c(OC)cccc12 [Compound 26] | 84 | Y | – |
| CNc1cc(NC(=O)OC)ccc1Nc1c2ccccc2nc2cc(C)ccc12 [Compound 52] | 86 | Y | – |
| CS(=O)(=O)Nc1ccc(Nc2c3ccccc3nc3ccccc23)c(NCC(O)CO)c1 (stereo not drawn) [Compound 30] | 84 | Y | – |
| CNc1cc(NS(C)(=O)=O)ccc1Nc1c2ccccc2nc2cc(C)ccc12 [Compound 3] | 83 | Y | – |
| CNc1cc(NS(=O)(=O)c2ccc(N)cc2)ccc1Nc1c2ccccc2nc2cc(Br)ccc12 [Compound 63] | 115 | Y | – |
| Cc1cccc2c(Nc3ccc(NS(C)(=O)=O)cc3NCCO)c3ccccc3nc12 [Compound 29] | – | Y | ILSmax (percentage increase in lifespan), marked * (P388 leukemia): 159% |
| Nc1ccc(S(=O)(=O)Nc2ccc(Nc3c4ccccc4nc4ccccc34)c(NCCO)c2)cc1 [Compound 65] | 50 | Y | – |
| CNc1cc(NS(C)(=O)=O)ccc1Nc1c2ccc(Cl)cc2nc2c(C)cccc12 [Compound 19] | – | Y | ILSmax (percentage increase in lifespan), marked * (P388 leukemia): 128%; ILS (percentage increase in lifespan) (Lewis lung carcinoma): 126%; active (Lewis lung) (Lewis lung carcinoma): Y |
| COC(=O)Nc1ccc(Nc2c3ccccc3nc3ccccc23)c(N(C)C)c1 [Compound 59] | 51 | Y | – |
| CNc1cc(NC(=O)OC)ccc1Nc1c2ccc(Br)cc2nc2c(C)cccc12 [Compound 57] | 97 | Y | ILS (percentage increase in lifespan), marked * (Lewis lung carcinoma): 82%; active (Lewis lung) (Lewis lung carcinoma): Y |
| CN(CCO)c1cc(NS(C)(=O)=O)ccc1Nc1c2ccccc2nc2ccccc12 [Compound 45] | – | Y | ILSmax (percentage increase in lifespan), marked * (P388 leukemia): 100% |
| CNc1cc(NS(C)(=O)=O)ccc1Nc1c2ccccc2nc2cc([N+](=O)[O-])ccc12 [Compound 9] | 70 | Y | – |
| CNc1cc(NC(=O)OC)ccc1Nc1c2ccccc2nc2c(C)cccc12 [Compound 58] | 114 | Y | ILS (percentage increase in lifespan), marked * (Lewis lung carcinoma): 48%; active (Lewis lung) (Lewis lung carcinoma): Y |
| CNc1cc(NC(=O)OC)ccc1Nc1c2ccccc2nc2cc(Cl)ccc12 [Compound 54] | 104 | Y | – |

| Structure (SMILES) | ILSmax (percentage increase in lifespan) (P388 leukemia) [%] | active (P388) (P388 leukemia) | other results |
| --- | --- | --- | --- |
| CNc1cc(NS(C)(=O)=O)ccc1Nc1c2ccccc2nc2cc(F)ccc12 [Compound 5] | – | Y | ILSmax (percentage increase in lifespan), marked * (P388 leukemia): 157% |
| CNc1cc(NS(C)(=O)=O)ccc1Nc1c2ccc(F)cc2nc2c(C)cccc12 [Compound 18] | – | Y | ILSmax (percentage increase in lifespan), marked * (P388 leukemia): 152%; ILS (percentage increase in lifespan), marked * (Lewis lung carcinoma): 143%; active (Lewis lung) (Lewis lung carcinoma): Y |
| CNc1cc(NP(=O)(OC)OC)ccc1Nc1c2ccccc2nc2c(C)cccc12 [Compound 49] | 91 | Y | – |
| CNc1cc(NS(=O)(=O)c2ccc(N)cc2)ccc1Nc1c2ccccc2nc2ccccc12 [Compound 62] | 104 | Y | – |
| CNc1cc(NS(C)(=O)=O)ccc1Nc1c2ccc(C)cc2nc2c(C)cccc12 [Compound 16] | 92 | Y | – |
| CNc1cc(NC(=O)OC)ccc1Nc1c2ccccc2nc2cc(F)ccc12 [Compound 53] | 110 | Y | – |
| CNc1cc(NP(=O)(OC)OC)ccc1Nc1c2ccccc2nc2cc(Br)ccc12 [Compound 48] | 77 | Y | – |
| CNc1cc(NS(C)(=O)=O)ccc1Nc1c2ccccc2nc2cc(OC)ccc12 [Compound 4] | – | Y | ILSmax (percentage increase in lifespan), marked * (P388 leukemia): 140% |
| CNc1cc(NS(C)(=O)=O)ccc1Nc1c2cccc(C)c2nc2c(C)cccc12 [Compound 25] | 107 | Y | – |
| Cc1cccc2c(Nc3ccc(NS(C)(=O)=O)cc3NCC(O)CO)c3ccccc3nc12 (stereo not drawn) [Compound 31] | 83 | Y | – |
| CNC(=O)c1cccc2c(Nc3ccc(NS(C)(=O)=O)cc3NC)c3ccccc3nc12 [Compound 15] | 82 | Y | – |
| CNc1cc(NC(=O)Oc2ccccc2)ccc1Nc1c2ccccc2nc2ccccc12 [Compound 66] | 71 | Y | – |
| CNC(=O)c1cccc2c(Nc3ccc(NS(C)(=O)=O)cc3NC)c3ccc(Cl)cc3nc12 [Compound 23] | 59 | Y | – |
| CN(C)c1cc(NS(C)(=O)=O)ccc1Nc1c2ccccc2nc2ccccc12 [Compound 32] | – | Y | ILSmax (percentage increase in lifespan), marked * (P388 leukemia): 212%; cured animals (Lewis lung carcinoma; at OD): all cured; ILS (percentage increase in lifespan) (Lewis lung carcinoma): > 250%; active (Lewis lung) (Lewis lung carcinoma): Y |
| CNc1cc(NC(=O)OC)ccc1Nc1c2ccccc2nc2cc(Br)ccc12 [Compound 55] | 101 | Y | – |
| COC(=O)Nc1ccc(Nc2c3ccccc3nc3ccccc23)c(NCCO)c1 [Compound 51] | 121 | Y | – |
| CNc1cc(NS(=O)(=O)c2ccc(N)cc2)ccc1Nc1c2ccccc2nc2c(C)cccc12 [Compound 64] | 139 | Y | – |
| Cc1cccc2c(Nc3ccc(NS(C)(=O)=O)cc3N(C)CCO)c3ccccc3nc12 [Compound 46] | – | Y | ILSmax (percentage increase in lifespan), marked * (P388 leukemia): 152% |
| CNc1cc(NS(=O)(=O)c2ccccc2)ccc1Nc1c2ccccc2nc2ccccc12 [Compound 60] | 117 | Y | – |
| CNc1cc(NS(C)(=O)=O)ccc1Nc1c2ccccc2nc2cc(NC(=O)OC)ccc12 [Compound 11] | – | Y | ILSmax (percentage increase in lifespan), marked * (P388 leukemia): 135% |
| O=S(=O)(Nc1ccc(Nc2c3ccccc3nc3ccccc23)c(NCCO)c1)c1ccccc1 [Compound 61] | 81 | Y | – |
| CNc1cc(NP(=O)(OC)OC)ccc1Nc1c2ccccc2nc2ccccc12 [Compound 47] | 118 | Y | – |
| CNc1cc(NC(=O)OC)ccc1Nc1c2ccc(Cl)cc2nc2c(C)cccc12 [Compound 56] | – | Y | ILSmax (percentage increase in lifespan), marked * (P388 leukemia): 151%; ILS (percentage increase in lifespan) (Lewis lung carcinoma): 100%; active (Lewis lung) (Lewis lung carcinoma): Y |
| CNc1cc(NC(=O)OC)ccc1Nc1c2ccccc2nc2ccccc12 [Compound 50] | 132 | Y | ILS (percentage increase in lifespan), marked * (Lewis lung carcinoma): 122%; active (Lewis lung) (Lewis lung carcinoma): Y |
| CNc1cc(NS(C)(=O)=O)ccc1Nc1c2ccc(C)cc2nc2c(OC)cccc12 [Compound 22] | 122 | Y | – |
